# Read-outs that look alike come from different tables or passages of the source.
# Tests used:
# advanced solid tumors = assay: Phase 1 combination study: tumor response (RECIST); type: in vivo, human
# Procedure: Circulating nucleic acids were analyzed for PIK3CA (exons 9 and 20), KRAS (exons 2 and 3), and BRAF (exons 11 and 15) mutations. DNA extracted from whole blood samples was subjected to real-time quantitative polymerase chain reaction and spectrophotometric analysis as part of the quality control process, as previously described. Mutation screening was performed using Surveyor Nuclease (Transgenomic, Inc., Nebraska, USA). Radiologic assessment (computed tomography [CT] and/or magnetic resonance imaging [MRI] scans) of disease status was performed at baseline and every 6 weeks according to Response Evaluation Criteria in Solid Tumors (v1.0).
# CYP3A [1] = assay: Metabolism in human microsomes; type: in vitro ADME
# [2] = tested on: non-small cell lung (NSCLC) cell lines and breast cancer cell lines; conditions: with erlotinib and lapatinib; including RAS mutant lines; cited from earlier work
# AKT2 = tested on: AKT2; parameters: method as in earlier work; conditions: cited from earlier work
# 2C9 = 2C9 (Homo sapiens, UniProt P11712); assay: CYP2C9 inhibition; type: in vitro ADME
# [3] = Phase 1 combination study: MK-2206 pharmacokinetics; type: in vivo, human; conditions: for Tmax / half-life: first dose; for Tmax: read-out: T max, median (range); for half-life: read-out: t 1/2, harmonic mean ± pseudo SD (converted)
# Procedure: For the Q3W schedule, samples were taken in cycle 1 on days 1 to 3 as per the QOD schedule, then on days 5, 7, 15, and in cycle 2 on day 1. Blood samples were collected predose and just before the end of the infusion for carboplatin, paclitaxel, and docetaxel for archival and possible PK analysis. Another sample was taken 30 minutes into the infusion of paclitaxel. These samples were archived for possible future analysis to investigate if any unexpected toxicities may have been as a result of a PK interaction. Docetaxel PK samples were analyzed in view of the DLT of febrile neutropenia observed in arm 2; however, PK parameters, such as half-life (t1/2) or systemic exposure of paclitaxel, docetaxel, carboplatin, and erlotinib, could not be evaluated due to the sparse blood sampling design used in this study.
# For QW dosing, samples were taken in cycle 1 on day 1 (predose, 2, 4, 6, 10, and 24 hours postdose), day 3 (48 hours postdose), and day 5 (96 hours postdose), then on days 8 and 15 (predose). This sampling schedule was repeated in cycle 2, except for the day 15 predose sample, which was omitted. For the QOD schedule, PK sampling for erlotinib was performed in cycle 1 on day 1 (predose, 2 and 4 hours postdose) and day 21 (2 and 4 hours postdose); for the QW schedule, sampling was performed in cycle 1 on day 1 (predose, 2 and 4 hours postdose) and in cycle 2 on day 1 (2 and 4 hours postdose). […] Blood samples were not analyzed for erlotinib concentrations as the potential for a marked drug-drug interaction with erlotinib as a victim was considered to be low as erlotinib is metabolized by both CYP3A and CYP1A.
# [4] = tested on: patients with advanced solid tumors; conditions: cited from earlier work
# CYP3A [5] = assay: CYP3A induction (mRNA and activity); type: in vitro ADME; conditions: at 0.1 to 10 μM
# [6] = tested on: patients with advanced solid tumors
# Procedure: The dose-escalation phase in all schedules followed a toxicity probability interval approach, where the aim was to target a dose with a DLT rate of 30% [20].
# For all treatment schedules, safety assessments were conducted at baseline and on days 1, 2, 3, 7, 15, and 21 of cycle 1, and weekly in cycles 2 to 6. From cycle 7 onwards, safety assessments were performed on day 1 of each cycle. […] In addition to glucose monitoring, serum c-peptide and whole blood HbA1c were measured at baseline and monthly. Adverse events (AEs) and laboratory variables were assessed using the National Cancer Institute Common Terminology Criteria for Adverse Events (NCI-CTCAE) version 3.0 ^1.
# [7] = tested on: PC-3 prostate and NCI-H462 tumor xenografts; conditions: with docetaxel, carboplatin, and gemcitabine; cited from earlier work
# [8] = human, plasma, oral, arm 1 carboplatin AUC 6 + paclitaxel 200 mg/m^2, MK-2206 90 mg Q3W, 5 patients
# [9] = human, plasma, oral, arm 1 carboplatin AUC 6 + paclitaxel 200 mg/m^2, MK-2206 200 mg Q3W, 5 patients
# [10] = human, plasma, oral, arm 2 docetaxel 60 mg/m^2, MK-2206 90 mg Q3W, 3 patients
# [11] = human, plasma, oral, arm 2 docetaxel 60 mg/m^2, MK-2206 200 mg Q3W, 4 patients
# [12] = human, plasma, oral, arm 3 erlotinib 100 mg, MK-2206 135 mg QW, 6 patients
# [13] = human, plasma, oral, arm 3 erlotinib 150 mg QD, MK-2206 135 mg QW, 6 patients
# Chain of 2C9 (P11712 whole entry): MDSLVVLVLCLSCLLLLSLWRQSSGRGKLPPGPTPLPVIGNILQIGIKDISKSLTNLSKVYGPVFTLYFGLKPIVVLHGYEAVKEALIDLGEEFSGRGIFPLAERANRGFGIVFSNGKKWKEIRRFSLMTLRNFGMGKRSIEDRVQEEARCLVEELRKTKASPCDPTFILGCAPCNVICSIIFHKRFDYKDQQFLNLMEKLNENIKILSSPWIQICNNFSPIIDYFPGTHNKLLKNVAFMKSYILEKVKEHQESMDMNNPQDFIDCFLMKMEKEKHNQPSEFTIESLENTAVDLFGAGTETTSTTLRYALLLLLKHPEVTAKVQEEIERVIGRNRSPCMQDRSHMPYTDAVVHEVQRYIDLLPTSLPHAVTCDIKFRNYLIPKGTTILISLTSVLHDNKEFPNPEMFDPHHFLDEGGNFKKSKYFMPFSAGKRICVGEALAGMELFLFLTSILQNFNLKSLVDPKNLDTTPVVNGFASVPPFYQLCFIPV
compound,measurement,setting,value
NC1(c2ccc(-c3nc4ccn5c(=O)[nH]nc5c4cc3-c3ccccc3)cc2)CCC1 [MK-2206],duration of SD,advanced solid tumors; 1 metastatic breast cancer patient harboring a PIK3CA mutation (exon 20),4 months
same,"duration of PR, range",advanced solid tumors; arm 1,2–21 months
same,median duration of PR,advanced solid tumors; arm 1,11 months
same,"confirmed partial responses, patients","advanced solid tumors; arm 1, QOD and Q3W schedules, melanoma, neuroendocrine prostate, endometrial, cervical",4
same,duration of unconfirmed PR,"advanced solid tumors; arm 1, SCC of the head and neck (n = 1)",2 month
same,"unconfirmed PRs, patients","advanced solid tumors; arm 1, SCC of the head and neck, and gastric",2 patients
same,duration of confirmed PR,"advanced solid tumors; arm 1, cervical (n = 1)",6 month
same,duration of confirmed PR,"advanced solid tumors; arm 1, endometrial (n = 1)",4 month
same,duration of unconfirmed PR,"advanced solid tumors; arm 1, gastric (n = 1)",2 month
same,duration of confirmed PR,"advanced solid tumors; arm 1, melanoma (n = 1)",21 month
same,duration of confirmed PR,"advanced solid tumors; arm 1, neuroendocrine prostate (n = 1)",6 month
same,"complete response, patients","advanced solid tumors; arm 1 carboplatin and paclitaxel, squamous cell carcinoma (SCC) of the orbit, 24 evaluable",1 patient
same,duration of PR,"advanced solid tumors; arm 2, MK-2206 200 mg with docetaxel, NSCLC patient",6 months
same,"confirmed PR, patients","advanced solid tumors; arm 2, Q3W MK-2206 and docetaxel, NSCLC",One
same,objective responses,advanced solid tumors; arm 3 erlotinib,No objective responses
same,"best response SD, duration","advanced solid tumors; arm 3 erlotinib, QW schedule, patient with NSCLC",7 months
same,"best response SD, duration","advanced solid tumors; arm 3 erlotinib, patient with cervical cancer",6 months
same,"duration of SD, range",advanced solid tumors; in vivo,1–13 months
same,median duration of SD,advanced solid tumors; in vivo,7 months
same,patients with SD lasting at least 6 months,advanced solid tumors; in vivo,Six
same,duration of SD,advanced solid tumors; patients harboring PIK3CA mutations,1.7 to 5.8 months
same,duration of SD,advanced solid tumors; patients with KRAS mutations,1.4 to 3.0 months
same,metabolism to oxidative metabolites,CYP3A [1],mediated primarily by CYP3A
same,inhibition of proliferation and induction of apoptosis in combination,[2],synergy
same,IC50,AKT2,12 nM
same,IC50,2C9,> 35000 nM
same,mean Ctrough,[3]; 45-mg dose level in all schedules,> 56.8 nM
same,mean 48-hr plasma concentration,"[3]; 60-mg QOD (arm 1), last PK sampling time",above 56.8 nM
same,"AUC, Cmax and Tmax following the first MK-2206 dose","[3]; all treatment arms, compared with single-agent phase 1 study (ref 18)",within ranges observed at the corresponding dose levels in the single-agent phase 1 study
same,apparent t1/2 in combination with carboplatin and erlotinib,[3]; compared with monotherapy,consistent with that observed with monotherapy
same,Tmax,"[3]; human, plasma, oral, arm 1 carboplatin AUC 6 + paclitaxel 200 mg/m^2, MK-2206 45 mg QOD, 6 patients",4 h
same,Tmax,"[3]; human, plasma, oral, arm 1 carboplatin AUC 6 + paclitaxel 200 mg/m^2, MK-2206 60 mg QOD, 8 patients",8 h
same,Tmax,[3]; [8],6 h
same,half-life,[3]; [8],79.5 ± 17.3 h
same,half-life,"[3]; human, plasma, oral, arm 1 carboplatin AUC 6 + paclitaxel 200 mg/m^2, MK-2206 135 mg Q3W, 6 patients",73 ± 20 h
same,Tmax,[3]; [9],4 h
same,half-life,[3]; [9],74.7 ± 13.4 h
same,Tmax,[3]; [10],4 h
same,half-life,[3]; [10],105 ± 15 h
same,half-life,"[3]; human, plasma, oral, arm 2 docetaxel 60 mg/m^2, MK-2206 135 mg Q3W, 3 patients",106 ± 32.7 h
same,Tmax,[3]; [11],6 h
same,half-life,[3]; [11],86.9 ± 11.5 h
same,Tmax,"[3]; human, plasma, oral, arm 2 docetaxel 75 mg/m^2, MK-2206 45 mg QOD, 5 patients",6 h
same,Tmax,"[3]; human, plasma, oral, arm 3 erlotinib 100 mg, MK-2206 45 mg QOD, 9 patients",6 h
same,Tmax,[3]; [12],6 h
same,half-life,[3]; [12],60.6 ± 6.6 h
same,Tmax,"[3]; human, plasma, oral, arm 3 erlotinib 150 mg QD, MK-2206 45 mg QOD, 4 patients",7 h
same,Tmax,[3]; [13],4 h
same,half-life,[3]; [13],50.2 ± 10.3 h
same,concentration at 48 h,"[3]; human, plasma, oral, 45-mg QOD (arm 3), last PK sampling time",> 56.8 nM
same,MTD of single-agent MK-2206,[4]; QOD,60 mg
same,MTD of MK-2206 monotherapy,"[4]; QW, monotherapy phase 1 study",200 mg
same,half-life (t1/2),"[4]; single agent, QOD schedule",60 to 80 h
same,dose-limiting toxicities (DLT),[4]; single agent,rash and stomatitis
same,plasma concentration corresponding to 70% AKT inhibition,[4]; single-agent phase 1 study,56.8 nM
same,effect on CYP3A mRNA and activity,CYP3A [5],insignificant effect
same,"vomiting, frequency of AE",[6]; all arms and schedules (N = 72),36%
same,"rash, frequency","[6]; arm 1, Q3W schedule",25%
same,MTD of MK-2206,"[6]; arm 1, Q3W, with carboplatin AUC 6 and paclitaxel 200 mg/m^2",135 mg
same,MTD of MK-2206,"[6]; arm 1, QOD days 1, 3, 5, 7, PO, with carboplatin AUC 6 and paclitaxel 200 mg/m^2",45 mg
same,MTD of MK-2206,"[6]; arm 2, Q3W, with docetaxel",not reached
same,MAD of MK-2206,"[6]; arm 2, Q3W, with docetaxel 60 mg/m^2",200 mg
same,DLT rate,"[6]; arm 3, MK-2206 135 mg QW with erlotinib",17%
same,MTD of MK-2206,"[6]; arm 3, QW, with erlotinib",not reached
same,Alopecia Grade 4,"[6]; human, in vivo",0 n (%)
same,Decreased appetite Grade 4,"[6]; human, in vivo",0 n (%)
same,Diarrhea Grade 4,"[6]; human, in vivo",0 n (%)
same,Fatigue Grade 4,"[6]; human, in vivo",0 n (%)
same,Nausea Grade 4,"[6]; human, in vivo",0 n (%)
same,Pruritus Grade 4,"[6]; human, in vivo",0 n (%)
same,Rash Grade 4,"[6]; human, in vivo",0 n (%)
same,Stomatitis Grade 4,"[6]; human, in vivo",0 n (%)
same,Vomiting Grade 4,"[6]; human, in vivo",0 n (%)
same,"alopecia, frequency of AE","[6]; human, in vivo",40%
same,"anorexia, frequency of AE","[6]; human, in vivo",44%
same,"diarrhea, frequency of AE","[6]; human, in vivo",44%
same,"fatigue, frequency of AE","[6]; human, in vivo",68%
same,"hyperglycemia, frequency of AE","[6]; human, in vivo",25%
same,"nausea, frequency of AE","[6]; human, in vivo",49%
same,"rash, frequency","[6]; human, in vivo",40%
same,"rash, frequency of AE","[6]; human, in vivo",47%
same,rate of febrile neutropenia,"[6]; human, in vivo",60%
same,"stomatitis, frequency of AE","[6]; human, in vivo",32%
same,time to full reversal of rash after dose interruption and appropriate treatment,"[6]; human, in vivo",7 to 14 days
same,Dose-limiting toxicities,"[6]; human, in vivo, 21 days",0
same,inhibition of xenograft growth in combination,[7],synergised

# — publication PMC3884022 (Journal of Hematology & Oncology, 2014)
